Experimental data published in patent publication US20230278972A1, “SUBSTITUTED HALOALKYL SULFONANILIDE HERBICIDES” (FMC Corporation, priority 2020, published 2023).

How the values were obtained:
Type in all cases: in vivo
[1] = system: wheat (Triticum aestivum); assay: Test A1 postemergence, wheat; conditions: for Wheat plant response rating: postemergence; for Plant response rating, Wheat: Postemergence
Summary of the method: (§1)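 Both timings started from seed in a loam-sand blend. Preemergence pots got a directed soil application immediately; postemergence pots were sprayed when seedlings had one or two leaves and stood 2–10 cm. Each compound was prepared in a non-phytotoxic solvent plus surfactant.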

[2] = system: ducksalad (Heteranthera limosa); assay: Test B1 flooded paddy test, ducksalad; conditions: 250 g ai/ha, Flood, applied to paddy water, 2-leaf stage, visually evaluated after 10 to 14 days
Source text: A dash (-) response means no test result.

[3] = system: galium (catchweed bedstraw, Galium aparine); assay: Test A1 postemergence, galium; conditions: for Galium plant response rating: postemergence; for Plant response rating, Galium: Postemergence
Summary of the method: as §1

[4] = system: goosegrass (Eleusine indica); assay: Test A1 preemergence, goosegrass
Summary of the method: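 Seeds were first planted into a blend of loam soil and sand and given a preemergence directed soil spray. In parallel, pots of the same soil were sown for postemergence application once plants reached 2 to 10 cm and the one- to two-leaf stage. Both used surfactant-containing non-phytotoxic solvent formulations.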

[5] = system: horseweed (Erigeron canadensis); assay: Test A1 postemergence, horseweed; conditions: for Horseweed plant response rating: postemergence; for Plant response rating, Horseweed: Postemergence
Summary of the method: as §1

[6] = 31 g ai/ha, 0 to 100 scale (0 no effect, 100 complete control)
[7] = 125 g ai/ha, 0 to 100 scale, 0 no effect, 100 complete control
[8] = 125 g ai/ha, 0 to 100 scale (0 no effect, 100 complete control), 10 days
[9] = 125 g ai/ha, 0 to 100 scale (0 no effect, 100 complete control)
[10] = 31 g ai/ha, 0 to 100 scale (0 no effect, 100 complete control), 10 days

SMILES	Wheat plant response rating [1, 6]	Plant response rating, Wheat ([1]; 125 g ai/ha, 0 to 100 scale)	Plant response rating, Ducksalad (0 to 100 scale, 0 is no effect, 100 is complete control) [2]	Galium plant response rating [3, 6]	Plant response rating, Galium ([3]; 125 g ai/ha, 0 to 100 scale)	Plant response rating, Goosegrass [4, 6]	Plant response rating, Goosegrass [4, 7]	Horseweed plant response rating [5, 6]	Plant response rating, Horseweed ([5]; 125 g ai/ha, 0 to 100 scale)	Plant response rating, Wheat [1, 8]	Plant response rating, Galium [3, 8]	Plant response rating, Horseweed [5, 8]	Plant response rating, Wheat ([1]; 500 g ai/ha, 0 to 100 scale)	Plant response rating, Galium ([3]; 500 g ai/ha, 0 to 100 scale)	Plant response rating, Goosegrass ([4]; 500 g ai/ha, 0 to 100 scale (0 no effect, 100 complete control))	Plant response rating, Goosegrass [4, 9]	Plant response rating, Wheat [1, 10]	Plant response rating, Galium [3, 10]	Plant response rating, Horseweed [5, 10]
CCOC(=O)N(c1cc(C2=NOC3CCCC23)c(CC)cc1C)S(=O)(=O)C(F)(F)F (stereo not drawn) [Compound 379]	20	70	60	0	40	20	90	0	50										
Cc1cc(Cl)c(NS(=O)(=O)C(F)(F)F)cc1N1CC2(CCCCC2)OC1=O [Compound 394]	10		85	100		80	100	30		40	100	80							
Cc1cc(C)c(N(COC(=O)C(C)(C)C)S(=O)(=O)C(F)(F)F)cc1N1CCC2(CCC(F)(F)CC2)C1=O [Compound 397]			75				100			60	100		70	100	100				
CCOc1cccc2c1C(=O)N(c1cc(N(COC(=O)C(C)(C)C)S(=O)(=O)Cl)c(C)cc1C)C2 [Compound 414]	0		40	60		0		0		0	70	70				0			
Cc1cc(C)c(C2=NOC(C(C)C)C2)cc1NS(=O)(=O)C(F)(F)F (stereo not drawn) [Compound 381]	20		50	0		30	100	0		70	50	30							
Cc1cc(C)c(N(S(=O)(=O)C(F)(F)F)S(=O)(=O)C(F)(F)F)cc1N1CCC2(CCC(C(F)(F)F)CC2)C1=O (stereo not drawn) [Compound 399]	60		75	50		90	90	0		60	90	50							
Cc1c(NS(=O)(=O)C(F)(F)F)cc(C2=NOC3(CCCC3)C2)c(C)c1C [Compound 380]	0		70	50		50	100	30		80	60	80							
Cc1cc(Cl)c(NS(=O)(=O)C(F)(F)F)cc1N1CCC2(CCCCC2)C1=O [Compound 393]	30		95	100		100	100	0		60	100	30							
Cc1cc(C)c(N(COC(=O)C(C)(C)C)S(=O)(=O)C(F)(F)F)cc1N1CCC2(CCC(C(F)(F)F)CC2)C1=O (stereo not drawn) [Compound 403]	0		15	70		0	0	0		0	100	30							
Cc1cc(C)c(N2Cc3cccc(Br)c3C2=O)cc1NS(=O)(=O)Cl [Compound 415]	20		65	60		90		60		70	90					100			
Cc1ccc(C2=NOC3CCCC23)cc1NS(=O)(=O)C(F)(F)F (stereo not drawn) [Compound 377]	0	20	15	0	0	0	20	30	80										
COC1CCC2(CC1)CCN(c1cc(NS(=O)(=O)C(F)(F)F)c(C)cc1C)C2=O (stereo not drawn) [Compound 398]	60		95	80		100	100	20		70	90	50							
CCOC(=O)N(c1cc(C(=O)N2CCSCC2)c(C)c(C)c1C)S(=O)(=O)C(F)(F)F [Compound 286]		20	50		80	30	90		60								0	50	0
Cc1c(C(=O)N2CCSCC2)cc(N(COC(=O)C(C)(C)C)S(=O)(=O)C(F)(F)F)c(C)c1C [Compound 285]		20	50		80	0	70		80								10	40	70
Cc1c(C2=NOC3(CCCC3)C2)cc(N(COC(=O)C(C)(C)C)S(=O)(=O)C(F)(F)F)c(C)c1C [Compound 382]	0		25	0		0	30	0		60	50	50							
COc1cccc2c1C(=O)N(c1cc(N(COC(=O)C(C)(C)C)S(=O)(=O)Cl)c(C)cc1C)C2 [Compound 413]	0		80	50		50		40		0	100	90				80			
Cc1cc(C)c(N2Cc3cccc(C)c3C2=O)cc1NS(=O)(=O)Cl [Compound 408]	60		75	90		100		20		70	100	70				100			
CCc1cc(C)c(N(COC(=O)C(C)(C)C)S(=O)(=O)C(F)(F)F)cc1C1=NOC2CCCC12 (stereo not drawn) [Compound 378]	30	60	20	20	40	20	50	0	90										
Cc1c(NS(=O)(=O)C(F)(F)F)cc(C(=O)N2CCSCC2)c(C)c1C [Compound 283]		50	50		70	30	60		80								10	50	70
